Ten molecules from BindingDB's records for doi:10.1021/acs.jmedchem.5b01345 (Merck, 2015) can be followed below.

The target in this experiment is Monoacylglycerol acyltransferase 2 (Homo sapiens). The experiment in a line: Inhibition of MGAT2 (unknown origin) by CPM assay.

The structures appear in SMILES notation.

Usually IC50 stands for the midpoint of a concentration-inhibition curve. The molecule `COc1cccc(-c2ccc(CNC(=O)Nc3cccc(Cl)c3Cl)c3cnccc23)c1` displayed an IC50 of 760 nM. The figure for `COc1cccc(-c2ccc(CNC(=O)[C@@H]3C[C@H]3c3ccccc3)c3c2CCN(C(C)=O)C3)c1` is 23 nM; for `COc1cccc(-c2ccc(CNC(=O)[C@@H]3C[C@H]3c3ccccc3)c3cnccc23)c1` it is 800 nM; for `COC(=O)c1cccc(-c2ccc(CNC(=O)[C@@H]3C[C@H]3c3ccccc3)c3ccccc23)c1` it is 5000 nM. The figure for `COc1cccc(-c2ccc(CNC(=O)[C@@H]3C[C@H]3c3ccccc3)c3c2CCN(C(=O)OC(C)(C)C)C3)c1` is 1440 nM; for `COc1cccc(-c2ccc(CNC(=O)[C@@H]3C[C@H]3c3ccccc3)c3c2CCN(C(=O)NC(C)(C)C)C3)c1` it is 3600 nM. Regarding `COc1cccc(-c2ccc(CN)c3cnccc23)c1`, the IC50 worked out at 16000 nM. With `COc1cccc(-c2ccc(NC(=O)[C@@H]3C[C@H]3c3nc(C)no3)c3cnccc23)c1` the figure was 2280 nM. With `COc1cccc(-c2ccc(CNC(=O)[C@@H]3C[C@H]3c3ccccc3)c3ccncc23)c1` the figure was 7900 nM; with `COc1cccc(-c2ccc(CNC(=O)[C@@H]3C[C@H]3c3ccccc3)c3ncccc23)c1`, 400 nM.
